Measured values: US12365695B2, “Fused ring heteroaryl compounds as RIPK1 inhibitors” (BiSiChem Co., Ltd., priority 2019, dated 2025)

tested on: HT-29 cells; assay: Cell-based necroptosis assay for RIPK1 activity (cell viability, CCK-8); conditions: HT29 (human colon cancer), Z-VAD-FMK 20 μM, human TNFα 10 ng/ml, SM-164 100 nM, 24 h, read-out: Necroptosis inhibition (IC50)
Experimental: Human colon carcinoma cell HT-29 (KCLB 30038), BV2 mouse microglial cell (cell was a kind gift from Dr. Nak-Yun Sung, Senior researcher at Korea Prime Pharmacy CO., LTD.) and human microglial cell HMC3 (ATCC® CRL-3304™). HT-29 cell was grown in Roswell Park Memorial Institute (RPMI) 1640, BV2 cell was grown in Dulbecco's Modified Eagle's Medium (DMEM) and HMC3 cell was grown in Minimum Essential Media Eagle (MEM) supplemented with 10% fetal bovine serum and 1% mixture of penicillin and streptomycin (Gibco). Cells were maintained at 37° C. in a humidified 5% CO2 atmosphere.
To measure the activity of RIPK1 inhibitor in necroptotic cells, HT-29 cells were treated by control DMSO, human TNFα (Peprotech, Rocky Hill, USA), SM-164 (Biovision, California, USA) and a pan-caspase inhibitor Z-VAD-FMK (Invivogen, San Diego, USA). Cells were pretreated with Z-VAD-FMK 20 μM. After 30 min, human TNFα 10 ng/ml, SM-164 100 nM and RIPK1 Inhibitor (0.0001, 0.001, 0.01, 0.02, 0.05, 0.1, 1, 10 uM) were treated for 24 h. Cell viability was measured by Cell Counting Kit 8 (CCK-8) (Dong-in, Seoul, Korea).

Structure (SMILES)	IC50 [nM]
CN1C(=O)[C@@H](NC(=O)n2cc(Cc3ccccc3)cn2)COc2ccnc(F)c21 [Example 32, (S)-4-benzyl-N-(6-fluoro-5-methyl-4-oxo-2,3,4,5-tetrahydropyrido[4,3-b][1,4]oxazepin-3-yl)-1H-pyrazole-1-carboxamide]	< 10
CN1C(=O)[C@@H](NC(=O)n2cc(Cc3cccc(F)c3)cn2)COc2ccnc(F)c21 [Example 33, (S)—N-(6-fluoro-5-methyl-4-oxo-2,3,4,5-tetrahydropyrido[4,3-b][1,4]oxazepin-3-yl)-4-(3-fluorobenzyl)-1H-pyrazole-1-carboxamide]	< 100
CN1C(=O)[C@@H](NC(=O)n2cc(Cc3ccccc3)cn2)COc2cc(F)ncc21 [Example 34, (S)-4-benzyl-N-(8-fluoro-5-methyl-4-oxo-2,3,4,5-tetrahydropyrido[4,3-b][1,4]oxazepin-3-yl)-1H-pyrazole-1-carboxamide]	< 10
CN1C(=O)[C@@H](NC(=O)n2cc(Cc3cccc(F)c3)cn2)COc2cc(F)ncc21 [Example 35, (S)—N-(8-fluoro-5-methyl-4-oxo-2,3,4,5-tetrahydropyrido[4,3-b][1,4]oxazepin-3-yl)-4-(3-fluorobenzyl)-1H-pyrazole-1-carboxamide]	< 10
CN1C(=O)[C@@H](NC(=O)n2cc(Cc3ccccc3)cn2)COc2cc(Cl)ncc21 [Example 36, (S)-4-benzyl-N-(8-chloro-5-methyl-4-oxo-2,3,4,5-tetrahydropyrido[4,3-b][1,4]oxazepin-3-yl)-1H-pyrazole-1-carboxamide]	< 10
Cc1cc2c(cn1)N(C)C(=O)[C@@H](NC(=O)n1cc(Cc3ccccc3)cn1)CO2 [Example 37, (S)-4-benzyl-N-(5,8-dimethyl-4-oxo-2,3,4,5-tetrahydropyrido[4,3-b][1,4]oxazepin-3-yl)-1H-pyrazole-1-carboxamide]	< 10
